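Values below derive from 48-hour exposures of cells grown in 96-well plates, with endpoints linearly interpolated between the two concentrations bracketing the appropriate inhibition level. TGI: concentration producing complete growth inhibition.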
What was measured:
Assay in all cases: NCI-60 cell line screen, 48 h
786-0 renal = system: 786-0 renal
A498 renal = system: A498 renal
A549 NSCLC = system: A549 NSCLC
ACHN renal = system: ACHN renal
BT-549 breast = system: BT-549 breast
CAKI-1 renal = system: CAKI-1 renal
CCRF-CEM leukemia = system: CCRF-CEM leukemia
COLO 205 colon = system: COLO 205 colon
DU-145 prostate = system: DU-145 prostate
EKVX NSCLC = system: EKVX NSCLC
HCC-2998 colon = system: HCC-2998 colon
HCT-116 colon = system: HCT-116 colon
HCT-15 colon = system: HCT-15 colon
HL-60(TB) leukemia = system: HL-60(TB) leukemia
HOP-62 NSCLC = system: HOP-62 NSCLC
HOP-92 NSCLC = system: HOP-92 NSCLC
HS 578T breast = system: HS 578T breast
HT29 colon = system: HT29 colon
IGROV1 ovarian = system: IGROV1 ovarian
K-562 leukemia = system: K-562 leukemia
LOX IMVI melanoma = system: LOX IMVI melanoma
M14 melanoma = system: M14 melanoma
MALME-3M melanoma = system: MALME-3M melanoma
MCF7 breast = system: MCF7 breast
MDA-MB-231 breast = system: MDA-MB-231 breast
MDA-MB-435 = system: MDA-MB-435
MDA-N = system: MDA-N
MOLT-4 leukemia = system: MOLT-4 leukemia
NCI-H226 lung = system: NCI-H226 lung
NCI-H23 lung = system: NCI-H23 lung
NCI-H460 lung = system: NCI-H460 lung
NCI-H522 lung = system: NCI-H522 lung
NCI/ADR-RES ovarian = system: NCI/ADR-RES ovarian
OVCAR-3 ovarian = system: OVCAR-3 ovarian
OVCAR-4 ovarian = system: OVCAR-4 ovarian
OVCAR-5 ovarian = system: OVCAR-5 ovarian
OVCAR-8 ovarian = system: OVCAR-8 ovarian
RPMI-8226 leukemia = system: RPMI-8226 leukemia
RXF 393 renal = system: RXF 393 renal
SF-268 CNS = system: SF-268 CNS
SF-295 CNS = system: SF-295 CNS
SF-539 CNS = system: SF-539 CNS
SK-MEL-2 melanoma = system: SK-MEL-2 melanoma
SK-MEL-28 melanoma = system: SK-MEL-28 melanoma
SK-MEL-5 melanoma = system: SK-MEL-5 melanoma
SK-OV-3 ovarian = system: SK-OV-3 ovarian
SN12C renal = system: SN12C renal
SNB-19 CNS = system: SNB-19 CNS
SNB-75 CNS = system: SNB-75 CNS
SR leukemia = system: SR leukemia
SW-620 colon = system: SW-620 colon
T-47D breast = system: T-47D breast
TK-10 renal = system: TK-10 renal
U251 CNS = system: U251 CNS
UACC-257 melanoma = system: UACC-257 melanoma
UACC-62 melanoma = system: UACC-62 melanoma
UO-31 renal = system: UO-31 renal

In the case of COc1cc(-c2cc(=O)c3c(OC)c(OC)c(OC)c(OC)c3o2)cc(OC)c1OC, the TGI (786-0 renal) is reported as > 100 µM, the TGI (A498 renal) is reported as 85.2 µM and the TGI (A549 NSCLC) is reported as > 100 µM. The TGI (ACHN renal) was > 100 µM, the TGI (BT-549 breast) was > 100 µM and the TGI (CAKI-1 renal) was > 100 µM. The TGI (CCRF-CEM leukemia) was > 100 µM, the TGI (COLO 205 colon) was 40 µM and the TGI (DU-145 prostate) was > 100 µM. The TGI (EKVX NSCLC) was > 100 µM, the TGI (HCC-2998 colon) was > 100 µM and the TGI (HCT-116 colon) was > 100 µM. The TGI (HCT-15 colon) was > 100 µM, the TGI (HL-60(TB) leukemia) was 67.5 µM and the TGI (HOP-62 NSCLC) was > 100 µM. For the same compound, the TGI (HOP-92 NSCLC) was 86.6 µM, the TGI (HS 578T breast) was > 100 µM and the TGI (HT29 colon) was > 100 µM. The TGI (IGROV1 ovarian) was > 100 µM, the TGI (K-562 leukemia) was > 100 µM and the TGI (LOX IMVI melanoma) was 83.1 µM. For the same compound, the TGI (M14 melanoma) was > 100 µM, the TGI (MALME-3M melanoma) was > 100 µM and the TGI (MCF7 breast) was > 100 µM. For the same compound, the TGI (MDA-MB-231 breast) was > 100 µM, the TGI (MDA-MB-435) was > 100 µM and the TGI (MDA-N) was > 100 µM. For the same compound, the TGI (MOLT-4 leukemia) was > 100 µM, the TGI (NCI-H226 lung) was > 100 µM and the TGI (NCI-H23 lung) was > 100 µM. The TGI (NCI-H460 lung) was > 100 µM, the TGI (NCI-H522 lung) was 51.1 µM and the TGI (NCI/ADR-RES ovarian) was 84 µM. For the same compound, the TGI (OVCAR-3 ovarian) was > 100 µM, the TGI (OVCAR-4 ovarian) was > 100 µM and the TGI (OVCAR-5 ovarian) was > 100 µM. For the same compound, the TGI (OVCAR-8 ovarian) was > 100 µM, the TGI (RPMI-8226 leukemia) was > 100 µM and the TGI (RXF 393 renal) was > 100 µM. For the same compound, the TGI (SF-268 CNS) was > 100 µM, the TGI (SF-295 CNS) was > 100 µM and the TGI (SF-539 CNS) was > 100 µM. The TGI (SK-MEL-2 melanoma) was > 100 µM, the TGI (SK-MEL-28 melanoma) was > 100 µM and the TGI (SK-MEL-5 melanoma) was 39.5 µM. The TGI (SK-OV-3 ovarian) was > 100 µM, the TGI (SN12C renal) was > 100 µM and the TGI (SNB-19 CNS) was > 100 µM. The TGI (SNB-75 CNS) was > 100 µM, the TGI (SR leukemia) was > 100 µM and the TGI (SW-620 colon) was > 100 µM. For the same compound, the TGI (T-47D breast) was 70.5 µM, the TGI (TK-10 renal) was > 100 µM and the TGI (U251 CNS) was > 100 µM. For the same compound, the TGI (UACC-257 melanoma) was > 100 µM, the TGI (UACC-62 melanoma) was 89.5 µM and the TGI (UO-31 renal) was > 100 µM.
